One compound from patent US11246813B2, “Composition for preventing hair loss or promoting hair development, comprising irone as active ingredient” (INDUSTRY-ACADEMIC COOPERATION FOUNDATION, YONSEI UNIVERSITY, priority 2017, dated 2022) can be followed below.

Common to all, as to assay type: cell-based
One series concerns PKA Cα. Description: Western blot of PKA Cα in human hair dermal papilla cells. Conditions: 20 μM. The protocol:
(§1) The […] of human hair dermal papilla cells, obtained by performing treatment with alpha-irone at 20 μM and performing culture, was homogenized with a lysis buffer, and then centrifuged at 13,000×g for 20 minutes at 4° C. Protein quantification was performed by Bradford assay. 40 μg of the protein was electrophoresed on 10% SDS polyacrylamide gel and then transferred to nitrocellulose membranes. The protein was allowed to react with each of PKA Cα, β-catenin, β-actin, and GAPDH antibody (Cell Signaling Technology, Danvers, Mass., USA). Each protein's signal was visualized with a chemiluminescent detection system (Amersham), and then the band's thickness was quantified using the Quantity One Analysis Software (Bio-Rad Laboratories).

Another series deals with LEF. Description: RT-PCR of LEF mRNA in human hair dermal papilla cells. Conditions: 20 μM, 24 hours. The protocol: (§2) In the present invention, in order to identify activity of alpha-irone on human hair dermal papilla cells (DPCs), when the DPCs reached 70% to 80% confluency, treatment with alpha-irone at 20 μM was performed, and then culture was performed under a condition of 5% CO2 and 37° C. 24 hours after the treatment, the cells were collected and total RNA was extracted with Trizol Reagent (Gibco BRL, USA). The total RNA was quantified by absorbance measurement at 260 nm.
(§3) After isolation of RNA, cDNA was synthesized by performing reverse transcription using oligo dT primers and SuperScript reverse transcriptase (GIBCOBRL, Gaithersburg, Md., USA). PCR was performed using, as a template, cDNA obtained through reverse transcription and using, as primers, 5′ and 3′ flanking sequences of the gene's cDNA to be amplified. Here, required primers were obtained by making a request for synthesis with a company specializing in primer manufacturing (BIONEER CORPORATION, Korea) and used. To a mixture obtained by mixing of 5 μl of 10× reaction buffer [100 mM KCL, 20 mM Tris-HCl (pH 8.0), 2.5 mM MgCl2], 4 μl of 10 mM dNTP, and 1 μl each of 0.2 μM sense and antisense primers, were added 2 μl of the completed cDNA reaction mixture and 2.5 unit of Taq polymerase (Takara, Japan). Then, the volume was adjusted with 50 μl of distilled water, and PCR was performed using a PCR instrument. […]

Series [1] deals with VEGF. Description: RT-PCR of VEGF mRNA in human hair dermal papilla cells. Conditions: 20 μM, 24 hours. The protocol:
as §2, §3

In another series the test system is IGF-1. Description: IGF-1 ELISA of culture solution of human hair dermal papilla cells. Conditions: 20 μM, 24 hours, vs DMSO. The protocol: (§4) Human hair dermal papilla cells were purchased from PromoCell GmbH (Heidelberg, Germany). The human hair dermal papilla cells were cultured in an incubator at 37° C., 5% CO2 using HFDPC medium (PromoCell, Germany) with fetal bovine serum (FBS) and Dulbecco's modified Eagle's medium (DMEM; Gibco BRL, Gaithersburg, Md., USA). Due to the nature of the cells, cells at passages 2 to 5 were used for all experiments. The human hair dermal papilla cells were dispensed into 12-well plates to 3×10^4 cells/well, and then the culture solutions were treated with alpha-irone at 20 μM. DMSO was used as a negative control group. The alpha-irone-treated culture solutions were collected after 24 hours, and experiments were conducted using human VEGF ELISA Kit (Enzo Life Sciences, NY, USA), human IGF-1 ELISA kit (Enzo Life Sciences, NY, USA), and cAMP complete ELISA kit (Enzo Life Sciences, NY, USA), respectively, according to the manufacturers' protocol.

Another series has as its system Cyc-D. Description: RT-PCR of Cyc-D mRNA in human hair dermal papilla cells. Conditions: 20 μM, 24 hours. The protocol:
as §2, §3

Another series relates to IGF. Description: RT-PCR of IGF-1 mRNA in human hair dermal papilla cells. Conditions: 20 μM, 24 hours. The protocol:
as §2, §3

The subject of series [2] is VEGF. Description: VEGF ELISA of culture solution of human hair dermal papilla cells. Conditions: 20 μM, 24 hours, vs DMSO. The protocol:
as §4

Series [3] relates to human hair dermal papilla cells. Description: MTT assay, cell viability and proliferation in human hair dermal papilla cells. The procedure:
Human hair dermal papilla cells were purchased from PromoCell GmbH (Heidelberg, Germany). The human hair dermal papilla cells were cultured in an incubator at 37° C., 5% CO2 using HFDPC medium (PromoCell, Germany) with fetal bovine serum (FBS) and Dulbecco's modified Eagle's medium (DMEM; Gibco BRL, Gaithersburg, Md., USA). Due to the nature of the cells, cells at passages 2 to 5 were used for all experiments. The human hair dermal papilla cells were dispensed into 24-well plates to 1×10^5 cells/well, and then cultured for 24 hours in an incubator at 37° C., 5% CO2 so that the cells are stabilized. Treatment with samples at respective concentrations (0, 10, 20, 50, 100, 200, 400 μg/ml) was performed and culture was performed for 24 hours. Then, treatment with 100 ul of 3-(4,5-dimethylthiazol-2-yl)-2,5-diphenyltetrazolium bromide (MTT; Sigma Aldrich, St. Louis, USA) reagent at a concentration of […] was performed and culture was performed again for 4 hours. After removing the medium, the precipitate (formazan) was dissolved in DMSO and the absorbance was measured at a wavelength of 540 nm. A proliferation rate thereof was evaluated based on the absorbance of a control group containing only DMSO.

For the next series, the system named is β-catenin. Description: Western blot of β-catenin in human hair dermal papilla cells. Conditions: 20 μM. The protocol: as §1
In the next series the test system is cAMP. Description: cAMP ELISA in human hair dermal papilla cells. Conditions: 20 μM, 24 hours, vs DMSO. The procedure: as §4

With `CC(=O)/C=C/C1C(C)=CCC(C)C1(C)C` (stereo not drawn) [alpha-irone, (E)-4-(2,5,6,6-tetramethylcyclohex-2-en-1-yl)but-3-en-2-one], in the series on PKA Cα, the “increase in expression of PKA Cα protein” value came to 52%. The “increase in mRNA expression of LEF” value with LEF is given as 348%. For the same compound, the “increase in mRNA expression of VEGF” value with VEGF [1] was 247%. Besides, the “increase in concentration of IGF-1” value in the series with IGF-1 turned out to be 18%. The “increase in mRNA expression of Cyc-D” value in the series with Cyc-D was 250%. In addition, the “increase in mRNA expression of IGF” value in the series with IGF stood at 217%. In addition, in the series on VEGF [2], the “increase in concentration of VEGF” value is given as 27%. Moreover, the “cell viability (MTT assay)” value in [3] (24 hours culture, up to a concentration of 400 μg/ml, vs DMSO control) is recorded as “did not affect the cell viability”. The entries for the “increase of proliferation rate” value in series [3] (alpha-irone 10 μM), in series [3] (alpha-irone 20 μM) and in series [3] (alpha-irone 50 μM) were 10.6%, 37% and 28%, respectively. The “increase in expression of β-catenin protein in the cell nucleus” value in the series with β-catenin worked out at 38%. In addition, the “increase in cAMP concentration” value in the series with cAMP was 51%.
